From patent publication US11471469B2 (Lennham Pharmaceuticals, Inc., priority 2020, dated 2022)

Molecular target: T1, Recombinant CYP19 (aromatase) (Homo sapiens, UniProt P11511)
T1 sequence (P11511 1-503): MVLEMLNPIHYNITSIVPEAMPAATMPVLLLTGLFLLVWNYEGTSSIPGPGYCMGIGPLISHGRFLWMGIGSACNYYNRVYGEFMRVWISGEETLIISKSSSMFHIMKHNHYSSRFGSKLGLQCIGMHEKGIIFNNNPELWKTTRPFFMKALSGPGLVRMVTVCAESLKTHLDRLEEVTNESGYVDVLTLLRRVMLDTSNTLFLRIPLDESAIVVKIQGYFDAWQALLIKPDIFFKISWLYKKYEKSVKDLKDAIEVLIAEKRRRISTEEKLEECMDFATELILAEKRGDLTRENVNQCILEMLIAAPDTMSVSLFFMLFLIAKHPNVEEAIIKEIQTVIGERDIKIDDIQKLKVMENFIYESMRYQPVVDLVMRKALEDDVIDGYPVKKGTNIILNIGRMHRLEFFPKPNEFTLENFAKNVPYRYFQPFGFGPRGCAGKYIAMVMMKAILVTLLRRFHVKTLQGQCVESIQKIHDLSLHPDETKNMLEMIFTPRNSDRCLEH
Assay: Metabolic stability in the presence of recombinant CYP19 (aromatase)
Protocol: The incubation conditions used are described in Table 1.
The analytical method used is described in Table 2.

[1] = recombinant human CYP19, compared with testosterone

Question: Which results are given for `[2H]C([2H])([2H])[C@]12CCC(=O)C=C1CC[C@H]1[C@@H]3CC[C@H](O)[C@@]3(C)CC[C@@H]12` [Testosterone-19-d3, testosterone-19-d3]?
Answer: half-life (t1/2) in aromatase, times longer than that of non-isotopically enriched testosterone (recombinant human CYP19, 0.5 μM, 4 pmol/ml or 2 μM, 10 pmol/ml, NADPH 1 mM, 0-60 min at 37° C.): 4-7 times; clearance by aromatase [1]: more resistant to clearance by aromatase; metabolic stability in the presence of aromatase [1]: substantially higher stability than testosterone
